Three compounds from patent US9750714B2, “Pharmaceutical use of 3, 4-bis-benzylsulfonylbutyronitrile” (Olatec Therapeutics LLC, priority 2013, dated 2017) can be followed below.

In assay [1] the test system is arachidonic acid-induced ear swelling. The experiment in a line: topical arachidonic acid-induced ear swelling model in mice. Type of assay: in vivo. The protocol:
The test compound, indomethacin (positive control), and vehicle were evaluated for anti-inflammatory activity in a topical arachidonic acid-induced ear swelling model in mice. Male ICR mice weighing 22±2 g were used and randomly divided; the test compound and vehicle control had 10 mice, and indomethacin had 5 mice. Arachidonic Acid (0.5 mg in 20 μl of acetone:ethanol/1:1) was applied topically to the anterior and posterior surfaces of the right ear of each mouse. Test substances and vehicle, as listed in Table 2 were similarly applied 30 min before and 15 min after arachidonic acid application. The thickness of the right ear and the left ear was measured and the difference calculated as an indication of the inflammation in the right ear. Ear swelling was measured by a Dyer model micrometer gauge at 60 and 90 minutes after arachidonic acid application as an index of inflammation. Percent inhibition was calculated according to the formula: Ic−It/Ic×100, where Ic and It refers to increase of ear thickness (mm) in control and treated mice, respectively. ANOVA and Dunnett's test were employed to ascertain significant difference between vehicle control and treated groups. Significance is set at P<0.05 level.

Assay [2] concerns tail flick response to heat stimulus. The experiment in a line: tail flick test in mice (49° C. water bath). The assay is classed as in vivo. The protocol:
The tail flick test is a test of the pain response in animals. The tail flick test is used in basic pain research and to measure the effectiveness of analgesics, by observing the tail flick reaction to heat in an animal. This test assesses the nociceptive response to a local pain stimulus, and the ability of a drug to inhibit this response.
Vehicle control (DMSO) and test compound 3, 4-bis-benzylsulfonylbutanenitrile in DMSO were administered by oral gavage to mice with a volume of 5 mL/kg, immediately prior to testing, at time zero. The test compound was administered at a dosage of 500 mg/kg in DMSO. Positive control morphine in water was administered at time zero by subcutaneous injection at 8 mg/kg to mice. […] The purpose of morphine is […] to serve as a comparison with the test compound. Each group had 10 mice.
The response of mice to heat stimulus was evaluated by measuring the time of tail-flick or tail-flick latency from 49° C. water bath. Briefly, the animal was held with its tail hanging down. Approximately 2 inches of the tail was immersed in a beaker of water at 38±1° C. for about 30 seconds, and this was done twice to acclimate the animal to the procedure.
Subsequently, approximately 2 inches of the tail was immersed in a beaker of water at 49±1° C., at which point a timer was started.
Tail flick measurements were made at 0, 30, 60, and 120 minutes post administration of the dosage of test compound, vehicle, or morphine. An ANOVA was done, and if p<0.05, a Dunnett's t test was employed to calculate significant difference between vehicle control and test compound treated groups. A pairwise Student's t test was used to calculate differences between the morphine group and the control group. […] Analysis with p-values<0.05 is considered significant.
On the technique in general: Hot-plate and tail-flick tests time the reaction to a heat stimulus.

On to `N#CCC(CS(=O)(=O)Cc1ccccc1)S(=O)(=O)Cc1ccccc1` (stereo not drawn) [3,4-bis-benzylsulfonylbutanenitrile, 3,4-bis-benzylsulfonylbutanenitrile], for which the “anti-inflammatory activity in the mouse ear swelling model (in words)” value in assay [1] (applied topically, inflammation induced by arachidonic acid) is reported as “anti-inflammatory”. Also, the “tail flick latency compared with vehicle-treated mice” value in assay [2] (test compound 500 mg/kg in DMSO, oral, 120 minutes post dosing) is “statistically significant”.

As to `COc1ccc2c(c1)c(CC(=O)O)c(C)n2C(=O)c1ccc(Cl)cc1` [Indomethacin, reference compound], in assay [1] (topical, applied 30 min before and 15 min after arachidonic acid, measured at 90 minutes, relative to vehicle, indomethacin 14 mM (0.1 mg/20 μL), test compound 375 mM (2.8 mg/20 μL)), the “% Inhibition of ear swelling” value turned out to be 58%.

`CN1CC[C@]23c4c5ccc(O)c4O[C@H]2[C@@H](O)C=C[C@H]3[C@H]1C5` [morphine]: the “tail flick latency compared with vehicle-treated mice” value in assay [2] (morphine 8 mg/kg subcutaneous, 30 minutes post dosing) is given as “statistically significant”; in assay [2] (morphine 8 mg/kg subcutaneous, 60 minutes post dosing) it was “statistically significant”; in assay [2] (morphine 8 mg/kg subcutaneous, 120 minutes post dosing), “not”.
